The target of the experiment is CK2 (Homo sapiens (Human), UniProt P68400). Put plainly: Radiometric CK2 kinase assay. The settings on record: for inhibition at 1 µM: compound at 1 μM; for inhibition at 0.1 µM: compound at 0.10 μM. The class given is biochemical.
Where [1] appears, read: inhibition of CK2 activity, ATP 10 μM.

The values below come from patent publication US20230278983A1, “INDOLE DERIVATIVES AND USES THEREOF FOR TREATING A CANCER” (Universite Claude Bernard Lyon 1, priority 2020, published 2023).

As usually defined, the IC50 is the midpoint of a concentration-inhibition curve. High values mean a need for much substance, low ones inhibition by little substance. Usually inhibition stands for the percentage by which the read-out fell short of the control. Read a low inhibition as a response near the control.

Like-named read-outs stand apart in the source and are kept apart here.

Sequence of CK2 (P68400 whole entry): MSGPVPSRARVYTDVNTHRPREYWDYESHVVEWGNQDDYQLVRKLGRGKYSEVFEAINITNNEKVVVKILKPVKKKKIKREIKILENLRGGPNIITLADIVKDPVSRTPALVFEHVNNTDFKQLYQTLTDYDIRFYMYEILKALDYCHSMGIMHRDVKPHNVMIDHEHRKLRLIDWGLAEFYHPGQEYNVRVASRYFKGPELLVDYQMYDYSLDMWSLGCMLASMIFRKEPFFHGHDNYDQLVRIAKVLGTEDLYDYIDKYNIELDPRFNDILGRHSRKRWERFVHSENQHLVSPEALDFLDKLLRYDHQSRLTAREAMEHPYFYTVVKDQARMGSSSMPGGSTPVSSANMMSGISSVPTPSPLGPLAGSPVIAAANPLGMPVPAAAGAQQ

Consider `CC(=O)c1[nH]c2ccc(F)cc2c1-c1cn(CC2CCN(CCNS(=O)(=O)c3ccc(-c4c(C)noc4C)cc3)CC2)nn1` [AB1286, N-(2-(4-((4-(2-acetyl-5-fluoro-1H-indol-3-yl)-1H-1,2,3-triazol-1-yl)methyl)piperidin-1-yl)ethyl)-4-(3,5-dimethylisoxazol-4-yl)benzenesulfonamide], for which half-maximal inhibition (IC50) was put at 430 nM.

On to `CC(C)COC(=O)c1[nH]c2ccc(F)cc2c1-c1cn(CC2CCN(CCNS(=O)(=O)c3ccc(-c4cccnc4N4CCCC4)cc3)CC2)nn1` [AB1073, isobutyl 5-fluoro-3-(1-((1-(2-((4-(2-(pyrrolidin-1-yl)pyridin-3-yl)phenyl)sulfonamido)ethyl)piperidin-4-yl)methyl)-1H-1,2,3-triazol-4-yl)-1H-indole-2-carboxylate], for which the IC50 is 18 nM.

Turning to `CCc1ccc(S(=O)(=O)NCCN2CCC(Cn3cc(-c4c(C(=O)OC(C)C)[nH]c5ccc(Cl)cc45)nn3)CC2)cc1` [AB578, Isopropyl 5-chloro-3-(1-((1-(2-((4-ethylphenyl)sulfonamido)ethyl)piperidin-4-yl)methyl)-1H-1,2,3-triazol-4-yl)-1H-indole-2-carboxylate], half-maximal inhibition (IC50) was put at 9200 nM.

In turn, `CCOC(=O)c1[nH]c2ccc(Cl)cc2c1-c1cn(CC2CCN(CCNS(=O)(=O)c3ccc(C)cc3)CC2)nn1` [AB505, Ethyl 5-chloro-3-(1-((1-(2-((4-methylphenyl)sulfonamido)ethyl)piperidin-4-yl)methyl)-1H-1,2,3-triazol-4-yl)-1H-indole-2-carboxylate] yielded a 50% inhibitory concentration (IC50) of 3760 nM.

The molecule `CC(=O)c1[nH]c2ccc(F)cc2c1-c1cn(CC2CCN(CCNS(=O)(=O)c3ccc(-c4c(F)cccc4C(F)(F)F)cc3)CC2)nn1` [AB1451, N-(2-(4-((4-(2-acetyl-5-fluoro-1H-indol-3-yl)-1H-1,2,3-triazol-1-yl)methyl)piperidin-1-yl)ethyl)-2′-fluoro-6′-(trifluoromethyl)-[1,1′-biphenyl]-4-sulfonamide] had a 50% inhibitory concentration (IC50) of 45 nM.

With `CCCC(=O)c1[nH]c2ccc(F)cc2c1-c1cn(CC2CCN(CCNS(=O)(=O)c3ccc(-c4cccnc4Cl)cc3)CC2)nn1` [AB1233, N-(2-(4-((4-(2-butyryl-5-fluoro-1H-indol-3-yl)-1H-1,2,3-triazol-1-yl)methyl)piperidin-1-yl)ethyl)-4-(2-chloropyridin-3-yl)benzenesulfonamide], under “compound at 0.05 μM, ATP 10 μM”, the inhibition at 0.05 µM turned out to be 17%.

As to `CC(C)COC(=O)c1[nH]c2ccc(F)cc2c1-c1cn(CC2CCN(Cc3ccc(Oc4ccc5c(c4)CCO5)c(C(C)C)c3)CC2)nn1` [AB717, Isobutyl 3-(1-((1-(4-((2,3-dihydrobenzofuran-5-yl)oxy)-3-isopropylbenzyl)piperidin-4-yl)methyl)-1H-1,2,3-triazol-4-yl)-5-fluoro-1H-indole-2-carboxylate], 1 µM produced 2% inhibition (ATP 10 μM).

The molecule `CCC(=O)c1[nH]c2ccc(F)cc2c1-c1cn(CC2CCN(CCNS(=O)(=O)c3ccc(-c4c(OC)cccc4OC)cc3)CC2)nn1` [AB1416, N-(2-(4-((4-(5-fluoro-2-propionyl-1H-indol-3-yl)-1H-1,2,3-triazol-1-yl)methyl)piperidin-1-yl)ethyl)-2′,6′-dimethoxy-[1,1′-biphenyl]-4-sulfonamide] had an IC50 of 100 nM.

In the case of `CCOC(=O)c1[nH]c2ccc(Cl)cc2c1-c1cn(CC2CCN(CCNS(=O)(=O)c3ccc(CC)cc3)CC2)nn1` [AB543, Ethyl 5-chloro-3-(1-((1-(2-((4-ethylphenyl)sulfonamido)ethyl)piperidin-4-yl)methyl)-1H-1,2,3-triazol-4-yl)-1H-indole-2-carboxylate], half-maximal inhibition (IC50) was put at 930 nM.

Consider `CC(C)COC(=O)c1[nH]c2ccc(F)cc2c1-c1cn(CC2CCN(Cc3ccc(Oc4ccccc4)c(C(C)C)c3)CC2)nn1` [AB697, Isobutyl 5-fluoro-3-(1-((1-(3-isopropyl-4-phenoxybenzyl)piperidin-4-yl)methyl)-1H-1,2,3-triazol-4-yl)-1H-indole-2-carboxylate], for which, under “ATP 10 μM”, the inhibition at 1 µM amounted to 16%.

Take `CC(C)CCOc1ccccc1-c1ccc(C(=O)N2CCC(Cn3cc(-c4c(C(=O)OCC(C)C)[nH]c5ccc(F)cc45)nn3)CC2)cc1Cl` [AB743, Isobutyl 3-(1-((1-(2-chloro-2′-(isopentyloxy)-[1,1′-biphenyl]-4-carbonyl)piperidin-4-yl)methyl)-1H-1,2,3-triazol-4-yl)-5-fluoro-1H-indole-2-carboxylate]: the inhibition at 1 µM (ATP 10 μM) was 9%.

Where the note is “ATP 10 μM”, `CC(C)Cc1ccc(S(=O)(=O)NCCN2CCC(Cn3cc(-c4c(C(=O)c5cccnc5)[nH]c5ccc(F)cc45)nn3)CC2)cc1` [AB1301, N-(2-(4-((4-(5-fluoro-2-nicotinoyl-1H-indol-3-yl)-1H-1,2,3-triazol-1-yl)methyl)piperidin-1-yl)ethyl)-4-isobutylbenzenesulfonamide] had an inhibition at 0.1 µM of 3%.

With `CC(=O)c1[nH]c2ccc(F)cc2c1-c1cn(C2CCN(CCNS(=O)(=O)c3ccc(CC(C)C)cc3)CC2)nn1` [AB1321, N-(2-(4-(4-(2-acetyl-5-fluoro-1H-indol-3-yl)-1H-1,2,3-triazol-1-yl)piperidin-1-yl)ethyl)-4-isobutylbenzenesulfonamide], 0.1 µM produced 4% inhibition (ATP 10 μM).

In turn, `CC(C)COC(=O)c1[nH]c2ccc(F)cc2c1-c1cn(CC2CCN(CCNS(=O)(=O)c3ccc(-c4ccoc4)cc3)CC2)nn1` [AB1071, isobutyl 5-fluoro-3-(1-((1-(2-((4-(furan-3-yl)phenyl)sulfonamido)ethyl)piperidin-4-yl)methyl)-1H-1,2,3-triazol-4-yl)-1H-indole-2-carboxylate] displayed an IC50 of 65 nM.

`CC(C)COC(=O)c1[nH]c2ccc(F)cc2c1-c1cn(CC2CCN(CCNS(=O)(=O)c3ccc(C(C)(C)C)cc3)CC2)nn1` [AB934, isobutyl 3-(1-((1-(2-((4-(tert-butyl)phenyl)sulfonamido)ethyl)piperidin-4-yl)methyl)-1H-1,2,3-triazol-4-yl)-5-fluoro-1H-indole-2-carboxylate]: the 50% inhibitory concentration (IC50) was found to be 52 nM.

Consider `CCc1ccc(S(=O)(=O)NCCN2CCC(Cn3cc(-c4c(C(=O)NCC(C)C)[nH]c5ccc(F)cc45)nn3)CC2)cc1` [AB651, 3-(1-((1-(2-((4-Ethylphenyl)sulfonamido)ethyl)piperidin-4-yl)methyl)-111-1,2,3-triazol-4-yl)-5-fluoro-N-isobutyl-1H-indole-2-carboxamide], for which, where the note is “ATP 10 μM”, the inhibition at 1 µM was found to be 5%.

Turning to `CCCCC(=O)c1[nH]c2ccc(F)cc2c1-c1cn(CC2CCN(CCNS(=O)(=O)c3ccc(CC(C)C)cc3)CC2)nn1` [AB1145, N-(2-(4-((4-(5-fluoro-2-pentanoyl-1H-indol-3-yl)-1H-1,2,3-triazol-1-yl)methyl)piperidin-1-yl)ethyl)-4-isobutylbenzenesulfonamide], the midpoint of inhibition, the IC50, lay at 130 nM.

In turn, `CC(C)CC(=O)c1[nH]c2ccc(F)cc2c1-c1cn(CC2CCN(CCNS(=O)(=O)Cc3ccc(C(F)(F)F)cc3)CC2)nn1` [AB1306, N-(2-(4-((4-(5-fluoro-2-(3-methylbutanoyl)-1H-indol-3-yl)-1H-1,2,3-triazol-1-yl)methyl)piperidin-1-yl)ethyl)-1-(4-(trifluoromethyl)phenyl)methanesulfonamide] displayed an IC50 under setting [1] of 450 nM.

For the setting “ATP 10 μM”, `CC(=O)c1[nH]c2ccc(F)cc2c1-c1cn(CC2CCN(CCNS(=O)(=O)c3ccc(-c4c(C#N)cccc4C(F)(F)F)cc3)CC2)nn1` [AB1393, N-(2-(4-((4-(2-acetyl-5-fluoro-1H-indol-3-yl)-1H-1,2,3-triazol-1-yl)methyl)piperidin-1-yl)ethyl)-2′-cyano-6′-(trifluoromethyl)-[1,1′-biphenyl]-4-sulfonamide] had an inhibition at 0.1 µM of 31%.

`CC(C)CCOc1ccc(CN2CCC(Cn3cc(-c4c(C(=O)OCC(C)C)[nH]c5ccc(F)cc45)nn3)CC2)cc1Cl` [AB746, Isobutyl 3-(1-((1-(3-chloro-4-(isopentyloxy)benzyl)piperidin-4-yl)methyl)-1H-1,2,3-triazol-4-yl)-5-fluoro-1H-indole-2-carboxylate] registered an inhibition at 1 µM (ATP 10 μM) of 15%.

With `CC(C)COC(=O)c1[nH]c2ccc(F)cc2c1-c1cn(CC2CCN(CCNS(=O)(=O)c3ccc4c(c3)OCCCO4)CC2)nn1` [AB1072, isobutyl 3-(1-((1-(2-((3,4-dihydro-2H-benzo[b][1,4]dioxepine)-7-sulfonamido)ethyl)piperidin-4-yl)methyl)-1H-1,2,3-triazol-4-yl)-5-fluoro-1H-indole-2-carboxylate], half-maximal inhibition (IC50) required 100 nM.

In turn, `CC(C)COC(=O)c1[nH]c2ccc(Cl)cc2c1-c1cn(CC2CCN(CCNS(=O)(=O)c3ccc(Cl)cc3)CC2)nn1` [AB499, Isobutyl 5-chloro-3-(1-((1-(2-((4-chlorophenyl)sulfonamido)ethyl)piperidin-4-yl)methyl)-1H-1,2,3-triazol-4-yl)-1H-indole-2-carboxylate] came in with an IC50 of 670 nM.

`CC(C)COC(=O)c1[nH]c2ccc(F)cc2c1-c1cn(CC2CCN(S(=O)(=O)c3ccc4c(c3)OCC4)CC2)nn1` [AB939, isobutyl 3-(1-((1-((2,3-dihydrobenzofuran-6-yl)sulfonyl)piperidin-4-yl)methyl)-1H-1,2,3-triazol-4-yl)-5-fluoro-1H-indole-2-carboxylate] returned an inhibition at 1 µM (ATP 10 μM) of 4%.

In turn, `CC(=O)c1[nH]c2ccc(F)cc2c1-c1cn(C[C@H]2CCN(CCNS(=O)(=O)c3ccc(CC(C)C)cc3)C2)nn1` [AB1318] had an IC50 of 300 nM.

In turn, `CC(=O)c1cccc(Oc2ccc(CN3CCC(Cn4cc(-c5c(C(=O)OCC(C)C)[nH]c6ccc(F)cc56)nn4)CC3)cc2C(C)C)c1` [AB718, Isobutyl 3-(1-((1-(4-(3-acetylphenoxy)-3-isopropylbenzyl)piperidin-4-yl)methyl)-1H-1,2,3-triazol-4-yl)-5-fluoro-1H-indole-2-carboxylate] yielded an inhibition at 1 µM (ATP 10 μM) of 5%.

Regarding `CC(C)COC(=O)c1[nH]c2ccc(F)cc2c1-c1cn(CC2CCN(CCNS(=O)(=O)c3ccc(-c4c(O)cccc4F)cc3)CC2)nn1` [AB1402, isobutyl 5-fluoro-3-(1-((1-(2-((2′-fluoro-6′-hydroxy-[1,1′-biphenyl])-4-sulfonamido)ethyl)piperidin-4-yl)methyl)-1H-1,2,3-triazol-4-yl)-1H-indole-2-carboxylate], it took 45 nM to reach half-maximal inhibition under setting [1] (IC50).
